Assay results reported in ChEMBL document CHEMBL1201862, “PubChem BioAssay data set” (2004).
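How tested: cells in 96-well plates exposed to compound for 48 hours at five concentrations. GI50: concentration for 50% inhibition of growth.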 Activity calls are given as the source filed them. Cut-off read from the data, not from the text of the source: active = GI50 up to about 1.1 µM and inactive = higher.

Key:
Experiment in all cases: NCI tumour cell line growth inhibition, 48 h
786-0 = tested on: 786-0
A498 = tested on: A498
A549 = tested on: A549
BT-549 = tested on: BT-549
CAKI-1 = tested on: CAKI-1
CCRF-CEM = tested on: CCRF-CEM
COLO 205 = tested on: COLO 205
DU-145 = tested on: DU-145
EKVX = tested on: EKVX
HCC 2998 = tested on: HCC 2998
HCT-116 = tested on: HCT-116
HCT-15 = tested on: HCT-15
HL-60 = tested on: HL-60
HOP-62 = tested on: HOP-62
HOP-92 = tested on: HOP-92
HT-29 = tested on: HT-29
Hs-578T = tested on: Hs-578T
IGROV-1 = tested on: IGROV-1
K562 = tested on: K562
KM12 = tested on: KM12
LOX IMVI = tested on: LOX IMVI
M14 = tested on: M14
MCF7 = tested on: MCF7
MDA-MB-231 = tested on: MDA-MB-231
MDA-MB-435 = tested on: MDA-MB-435
MDA-N = tested on: MDA-N
MOLT-4 = tested on: MOLT-4
Malme-3M = tested on: Malme-3M
NCI-H226 = tested on: NCI-H226
NCI-H23 = tested on: NCI-H23
NCI-H460 = tested on: NCI-H460
NCI/ADR-RES = tested on: NCI/ADR-RES
OVCAR-3 = tested on: OVCAR-3
OVCAR-4 = tested on: OVCAR-4
OVCAR-5 = tested on: OVCAR-5
OVCAR-8 = tested on: OVCAR-8
PC-3 = tested on: PC-3
RPMI-8226 = tested on: RPMI-8226
RXF 393 = tested on: RXF 393
SF-268 = tested on: SF-268
SF-295 = tested on: SF-295
SF-539 = tested on: SF-539
SK-MEL-28 = tested on: SK-MEL-28
SK-MEL-2 = tested on: SK-MEL-2
SK-MEL-5 = tested on: SK-MEL-5
SK-OV-3 = tested on: SK-OV-3
SN12C = tested on: SN12C
SNB-19 = tested on: SNB-19
SNB-75 = tested on: SNB-75
SR = tested on: SR
SW-620 = tested on: SW-620
T47D = tested on: T47D
U-251 = tested on: U-251
UACC-257 = tested on: UACC-257
UACC-62 = tested on: UACC-62
UO-31 = tested on: UO-31
ACHN = tested on: ACHN
NCI-H522 = tested on: NCI-H522
TK-10 = tested on: TK-10

Cc1cc(-c2ccc(C(=O)C(c3ccccc3)(c3ccccc3)c3ccccc3)[nH]2)on1 was tested, and the GI50 (786-0) was 18.4 µM (inactive), the GI50 (A498) was 37.1 µM (inactive) and the GI50 (A549) was 12 µM (inactive). For the same molecule, the GI50 (BT-549) was 18.7 µM (inactive), the GI50 (CAKI-1) was 33.1 µM (inactive) and the GI50 (CCRF-CEM) was 15.5 µM (inactive). For the same molecule, the GI50 (COLO 205) was 15.9 µM (inactive), the GI50 (DU-145) was 14.2 µM (inactive) and the GI50 (EKVX) was 13.2 µM (inactive). The GI50 (HCC 2998) was 11.2 µM (inactive), the GI50 (HCT-116) was 12.5 µM (inactive) and the GI50 (HCT-15) was 17.5 µM. The GI50 (HL-60) was 3.56 µM (inactive), the GI50 (HOP-62) was 17.1 µM (inactive) and the GI50 (HOP-92) was 16.1 µM (inactive). The GI50 (HT-29) was 11.4 µM (inactive), the GI50 (Hs-578T) was 19.2 µM (inactive) and the GI50 (IGROV-1) was 16.9 µM (inactive). For the same molecule, the GI50 (K562) was 32 µM (inactive), the GI50 (KM12) was 15.6 µM (inactive) and the GI50 (LOX IMVI) was 19.5 µM (inactive). The GI50 (M14) was 22.8 µM (inactive), the GI50 (MCF7) was 18.2 µM (inactive) and the GI50 (MDA-MB-231) was 19.7 µM (inactive). For the same molecule, the GI50 (MDA-MB-435) was 20.1 µM (inactive), the GI50 (MDA-N) was 16.6 µM (inactive) and the GI50 (MOLT-4) was 21.8 µM (inactive). For the same molecule, the GI50 (Malme-3M) was 31.4 µM (inactive), the GI50 (NCI-H226) was 16.9 µM (inactive) and the GI50 (NCI-H23) was 15 µM (inactive). The GI50 (NCI-H460) was 7.21 µM (inactive), the GI50 (NCI/ADR-RES) was 15.8 µM (inactive) and the GI50 (OVCAR-3) was 22.1 µM (inactive). The GI50 (OVCAR-4) was 32.3 µM (inactive), the GI50 (OVCAR-5) was 23.8 µM (inactive) and the GI50 (OVCAR-8) was 17.5 µM (inactive). The GI50 (PC-3) was 15.2 µM (inactive), the GI50 (RPMI-8226) was 14.4 µM (inactive) and the GI50 (RXF 393) was 2.2 µM (inactive). For the same molecule, the GI50 (SF-268) was 18.7 µM (inactive), the GI50 (SF-295) was 14.2 µM (inactive) and the GI50 (SF-539) was 29.7 µM (inactive). The GI50 (SK-MEL-28) was 17.6 µM (inactive), the GI50 (SK-MEL-2) was 14.6 µM (inactive) and the GI50 (SK-MEL-5) was 12.7 µM (inactive). For the same molecule, the GI50 (SK-OV-3) was 32.1 µM (inactive), the GI50 (SN12C) was 19.1 µM (inactive) and the GI50 (SNB-19) was 19 µM (inactive). For the same molecule, the GI50 (SNB-75) was 20.4 µM (inactive), the GI50 (SR) was 2.17 µM (inactive) and the GI50 (SW-620) was 19.8 µM (inactive). The GI50 (T47D) was 37.8 µM (inactive), the GI50 (U-251) was 12.9 µM (inactive) and the GI50 (UACC-257) was 32 µM (inactive). The GI50 (UACC-62) was 16.1 µM (inactive) and the GI50 (UO-31) was 15.2 µM (inactive).
In the case of CC(C)(C)OC(=O)NC(Cc1ccc(OCc2ccccc2)cn1)C(=O)N1CCCCC1 (centres undefined), the GI50 (786-0) is reported as 56 µM (inactive), the GI50 (A498) is reported as 34.5 µM (inactive) and the GI50 (A549) is reported as 49.7 µM (inactive). For the same molecule, the GI50 (ACHN) was 41.4 µM (inactive), the GI50 (BT-549) was 24.5 µM (inactive) and the GI50 (CAKI-1) was 60.4 µM (inactive). For the same molecule, the GI50 (CCRF-CEM) was 31.8 µM (inactive), the GI50 (COLO 205) was 18.6 µM (inactive) and the GI50 (DU-145) was 33 µM (inactive). The GI50 (EKVX) was 37.1 µM (inactive), the GI50 (HCC 2998) was 19.9 µM (inactive) and the GI50 (HCT-116) was 40.8 µM (inactive). For the same molecule, the GI50 (HCT-15) was 37.6 µM, the GI50 (HL-60) was 27 µM (inactive) and the GI50 (HOP-62) was 49.9 µM (inactive). For the same molecule, the GI50 (HOP-92) was 39.9 µM (inactive), the GI50 (HT-29) was 32 µM (inactive) and the GI50 (Hs-578T) was 67.3 µM (inactive). The GI50 (IGROV-1) was 53.7 µM (inactive), the GI50 (K562) was 31.7 µM (inactive) and the GI50 (KM12) was 30.9 µM (inactive). For the same molecule, the GI50 (LOX IMVI) was 25.4 µM (inactive), the GI50 (M14) was 37.8 µM (inactive) and the GI50 (MCF7) was 31.6 µM (inactive). The GI50 (MDA-MB-231) was 43.4 µM (inactive), the GI50 (MDA-MB-435) was 19.4 µM (inactive) and the GI50 (MDA-N) was 28.1 µM (inactive). The GI50 (MOLT-4) was 19.5 µM (inactive), the GI50 (Malme-3M) was 40.5 µM (inactive) and the GI50 (NCI-H23) was 31.1 µM (inactive). The GI50 (NCI-H460) was 33.7 µM (inactive), the GI50 (NCI-H522) was 32.1 µM (inactive) and the GI50 (NCI/ADR-RES) was 20.9 µM (inactive). For the same molecule, the GI50 (OVCAR-3) was 35.6 µM (inactive), the GI50 (OVCAR-5) was 65.2 µM (inactive) and the GI50 (OVCAR-8) was 35.6 µM (inactive). For the same molecule, the GI50 (PC-3) was 22.2 µM (inactive), the GI50 (RPMI-8226) was 20.7 µM (inactive) and the GI50 (RXF 393) was 19.5 µM (inactive). The GI50 (SF-268) was 65.6 µM (inactive), the GI50 (SF-295) was 30.5 µM (inactive) and the GI50 (SF-539) was 41.3 µM (inactive). The GI50 (SK-MEL-28) was 54.3 µM (inactive), the GI50 (SK-MEL-2) was 25.5 µM (inactive) and the GI50 (SK-MEL-5) was 16.4 µM (inactive). The GI50 (SK-OV-3) was 58.6 µM (inactive), the GI50 (SN12C) was 37.8 µM (inactive) and the GI50 (SNB-19) was 80.5 µM (inactive). For the same molecule, the GI50 (SNB-75) was 20.5 µM (inactive), the GI50 (SR) was 28.6 µM (inactive) and the GI50 (SW-620) was 89.3 µM (inactive). For the same molecule, the GI50 (T47D) was 12.1 µM (inactive), the GI50 (TK-10) was 37.1 µM (inactive) and the GI50 (U-251) was 42.4 µM (inactive). The GI50 (UACC-257) was 19.6 µM (inactive), the GI50 (UACC-62) was 29.1 µM (inactive) and the GI50 (UO-31) was 27.9 µM (inactive).
For CC1=C(C)C2(C#N)C(=O)N3C(=NC(c4ccccc4)NC3c3ccccc3)C2(C#N)C(c2ccccc2)N1 (centres undefined), the GI50 (786-0) was > 100 µM (inactive), the GI50 (A498) was > 100 µM (inactive) and the GI50 (A549) was > 100 µM (inactive). For the same molecule, the GI50 (ACHN) was > 100 µM (inactive), the GI50 (BT-549) was > 100 µM (inactive) and the GI50 (CAKI-1) was > 100 µM (inactive). For the same molecule, the GI50 (CCRF-CEM) was > 100 µM (inactive), the GI50 (COLO 205) was > 100 µM (inactive) and the GI50 (DU-145) was > 100 µM (inactive). The GI50 (EKVX) was > 100 µM (inactive), the GI50 (HCC 2998) was > 100 µM (inactive) and the GI50 (HCT-116) was > 100 µM (inactive). The GI50 (HCT-15) was greater than 100 µM, the GI50 (HL-60) was > 100 µM (inactive) and the GI50 (HOP-62) was > 100 µM (inactive). For the same molecule, the GI50 (HOP-92) was > 100 µM (inactive), the GI50 (HT-29) was > 100 µM (inactive) and the GI50 (Hs-578T) was > 100 µM (inactive). For the same molecule, the GI50 (IGROV-1) was > 100 µM (inactive), the GI50 (K562) was > 100 µM (inactive) and the GI50 (KM12) was > 100 µM (inactive). The GI50 (LOX IMVI) was > 100 µM (inactive), the GI50 (M14) was > 100 µM (inactive) and the GI50 (MCF7) was > 100 µM (inactive). The GI50 (MDA-MB-231) was > 100 µM (inactive), the GI50 (MDA-MB-435) was > 100 µM (inactive) and the GI50 (MDA-N) was > 100 µM (inactive). The GI50 (MOLT-4) was > 100 µM (inactive), the GI50 (Malme-3M) was > 100 µM (inactive) and the GI50 (NCI-H226) was > 100 µM (inactive). For the same molecule, the GI50 (NCI-H23) was > 100 µM (inactive), the GI50 (NCI-H460) was > 100 µM (inactive) and the GI50 (NCI-H522) was > 100 µM (inactive). For the same molecule, the GI50 (NCI/ADR-RES) was > 100 µM (inactive), the GI50 (OVCAR-4) was > 100 µM (inactive) and the GI50 (OVCAR-5) was > 100 µM (inactive). The GI50 (OVCAR-8) was > 100 µM (inactive), the GI50 (PC-3) was > 100 µM (inactive) and the GI50 (RPMI-8226) was > 100 µM (inactive). The GI50 (RXF 393) was > 100 µM (inactive), the GI50 (SF-268) was > 100 µM (inactive) and the GI50 (SF-295) was > 100 µM (inactive). The GI50 (SK-MEL-28) was > 100 µM (inactive), the GI50 (SK-MEL-2) was > 100 µM (inactive) and the GI50 (SK-MEL-5) was > 100 µM (inactive). The GI50 (SK-OV-3) was > 100 µM (inactive), the GI50 (SN12C) was > 100 µM (inactive) and the GI50 (SNB-19) was > 100 µM (inactive). The GI50 (SR) was > 100 µM (inactive), the GI50 (SW-620) was > 100 µM (inactive) and the GI50 (T47D) was > 100 µM (inactive). The GI50 (TK-10) was > 100 µM (inactive), the GI50 (U-251) was > 100 µM (inactive) and the GI50 (UACC-257) was > 100 µM (inactive). The GI50 (UACC-62) was > 100 µM (inactive) and the GI50 (UO-31) was > 100 µM (inactive).
